Test results from ChEMBL document CHEMBL1201862, “PubChem BioAssay data set” (2004).
Active and inactive are the calls of the source.

Columns and labels:
[1] = target: T1, Rac GTPase-activating protein 1 (Homo sapiens, UniProt Q9H0H5); assay: blockers of MgcRacGAP-driven Rac1 GTP hydrolysis – biochemical, ADP Hunter fluorescence, primary and confirmatory, confirmation (AID 624330); type: functional
T1 sequence (Q9H0H5 whole entry): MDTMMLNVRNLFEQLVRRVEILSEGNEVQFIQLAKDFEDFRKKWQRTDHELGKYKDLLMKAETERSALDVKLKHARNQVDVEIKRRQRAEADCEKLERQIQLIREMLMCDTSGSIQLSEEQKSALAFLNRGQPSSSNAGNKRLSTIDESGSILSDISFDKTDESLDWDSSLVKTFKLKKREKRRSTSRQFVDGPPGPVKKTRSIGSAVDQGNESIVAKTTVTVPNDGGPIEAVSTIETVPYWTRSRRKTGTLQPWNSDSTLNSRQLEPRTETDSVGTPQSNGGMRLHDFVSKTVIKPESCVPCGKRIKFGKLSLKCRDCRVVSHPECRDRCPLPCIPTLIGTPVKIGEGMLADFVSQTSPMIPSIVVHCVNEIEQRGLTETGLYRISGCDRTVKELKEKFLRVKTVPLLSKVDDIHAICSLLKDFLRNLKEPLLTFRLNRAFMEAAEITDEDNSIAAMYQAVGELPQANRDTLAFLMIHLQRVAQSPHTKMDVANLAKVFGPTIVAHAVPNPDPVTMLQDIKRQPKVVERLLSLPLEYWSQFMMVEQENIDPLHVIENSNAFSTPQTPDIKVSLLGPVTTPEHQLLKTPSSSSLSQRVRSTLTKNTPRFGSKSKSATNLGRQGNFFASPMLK

H4 = assay: Luminescence Cell-Based Dose Response HTS to Identify Activators of 5'UTR Stem-Loop Driven Prion Protein mRNA Translation in H4 Neuroglioblastoma Cells. [Related pubchem assays: 1829 (Project Summary), 1814 (Primary HTS)]; type: functional; settings: Homo sapiens
[2] = Luminescence Cell-Based Dose Response HTS to Identify Activators of Luciferase Translation or Activity in H4 […] Cells. [Related pubchem assays: 1829 (Project Summary), 1814 (Primary HTS)]; type: functional
[3] = Luminescence Cell-Based Dose Retest to Confirm Inhibitors of Cancer Stem Cells. [Related pubchem assays (depositor defined):AID2717, AID2721]; type: functional; settings: Homo sapiens
[4] = viability of PTEN-deleted HCT116 cells – cell-based, HCT116 PTEN knockout, dose response (AID 1047); type: functional;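 further: HCT116 colon tumor cells with PTEN knocked out; cells exposed to compound for 60 hours before readout; potency for loss of cell viability measured by luminescence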
[5] = viability of HCT116 lacking mutant beta-catenin – cell-based, human colon tumor, dose response (AID 1045); type: functional;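 further: HCT116 colon tumor cells with beta catenin knocked out; cells exposed to compound for 60 hours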
[6] = fluconazole-exposed Candida albicans growth modulators – fluorescence, retest, confirmation (AID 2467); type: functional, cell-based
[7] = NIH-3T3 fibroblast cytotoxicity, dose response, cytotoxicity control, cell-based, fluorescence, Alamar Blue, secondary assay (AID 2327); type: functional;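 further: NIH-3T3 mouse fibroblasts cultured with fluconazole at 8 µg/mL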
Protein skinhead-1 = target: T2, Protein skinhead-1 (Caenorhabditis elegans, UniProt P34707); type: functional
T2 sequence (P34707 whole entry): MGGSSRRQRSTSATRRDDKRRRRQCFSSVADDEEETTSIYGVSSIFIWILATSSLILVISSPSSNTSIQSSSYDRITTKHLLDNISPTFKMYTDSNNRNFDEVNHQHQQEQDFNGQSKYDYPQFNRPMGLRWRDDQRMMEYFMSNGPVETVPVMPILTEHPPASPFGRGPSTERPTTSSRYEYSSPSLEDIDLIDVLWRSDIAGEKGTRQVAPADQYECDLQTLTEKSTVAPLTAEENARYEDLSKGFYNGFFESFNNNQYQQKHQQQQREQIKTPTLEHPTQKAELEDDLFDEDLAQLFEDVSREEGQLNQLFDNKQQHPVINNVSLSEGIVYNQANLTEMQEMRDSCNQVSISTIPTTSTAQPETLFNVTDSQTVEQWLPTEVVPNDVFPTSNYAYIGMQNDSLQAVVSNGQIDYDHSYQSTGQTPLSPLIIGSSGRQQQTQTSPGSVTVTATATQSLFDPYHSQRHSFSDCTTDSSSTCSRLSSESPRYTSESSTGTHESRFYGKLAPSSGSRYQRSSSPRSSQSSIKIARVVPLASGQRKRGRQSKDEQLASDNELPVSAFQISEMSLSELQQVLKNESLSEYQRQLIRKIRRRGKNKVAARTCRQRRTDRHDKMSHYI

[8] = Trypanosoma cruzi growth suppression in host cells – NIH3T3 host cells, beta-gal luminescence, confirmation (AID 2044); type: functional, cell-based;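 further: intracellular parasites grown in NIH/3T3 mouse fibroblasts as host cells; luminescent beta-galactosidase reporter signal from transgenic T. cruzi replicating inside host cells; inhibitors lower the luminescence signal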
[9] = NIH3T3 cell viability loss – ATP luminescence, mouse fibroblasts, counter-screen, dose response (AID 2010); type: functional, cell-based;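 further: cells exposed to compound for about 90 hours before reading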
Cytochrome P450 2D6 = Cytochrome P450 2D6 (Homo sapiens, UniProt P10635);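 further: CYP2D6 member of a cytochrome P450 panel assay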
Cytochrome P450 2D6, sequence (P10635 whole entry, the tested form may be a part): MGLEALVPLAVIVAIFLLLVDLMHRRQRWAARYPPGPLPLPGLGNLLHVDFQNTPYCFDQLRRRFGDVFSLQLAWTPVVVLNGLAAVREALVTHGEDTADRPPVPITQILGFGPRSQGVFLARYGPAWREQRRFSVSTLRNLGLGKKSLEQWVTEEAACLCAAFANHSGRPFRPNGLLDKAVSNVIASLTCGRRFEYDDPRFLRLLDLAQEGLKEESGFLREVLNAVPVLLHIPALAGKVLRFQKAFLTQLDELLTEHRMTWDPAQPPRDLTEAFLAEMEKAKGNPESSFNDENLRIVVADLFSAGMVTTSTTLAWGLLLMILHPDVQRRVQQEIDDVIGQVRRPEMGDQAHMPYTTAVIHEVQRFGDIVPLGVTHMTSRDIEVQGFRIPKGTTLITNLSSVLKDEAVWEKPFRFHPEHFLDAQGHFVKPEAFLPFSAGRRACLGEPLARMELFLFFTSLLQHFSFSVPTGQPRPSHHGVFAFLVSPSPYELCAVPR

[10] = target: T3, RNA-binding protein pos-1 (Caenorhabditis elegans, UniProt G5EF15); assay: disruptors of C. elegans POS-1 RNA interaction – biochemical, fluorescence polarization, dose response (AID 1964);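 further: purified POS-1 fused to maltose binding protein made in E. coli; potency of compounds blocking POS-1 binding to fluorescent RNA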
T3 sequence (G5EF15 whole entry): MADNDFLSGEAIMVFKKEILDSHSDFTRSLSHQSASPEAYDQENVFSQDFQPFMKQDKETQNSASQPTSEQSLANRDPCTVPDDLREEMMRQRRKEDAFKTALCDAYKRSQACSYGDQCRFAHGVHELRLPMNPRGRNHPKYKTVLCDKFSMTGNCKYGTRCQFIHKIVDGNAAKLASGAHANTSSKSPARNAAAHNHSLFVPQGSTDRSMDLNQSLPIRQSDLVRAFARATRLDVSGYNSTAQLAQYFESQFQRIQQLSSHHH

[11] = target: T4, Zinc finger protein mex-5 (Caenorhabditis elegans, UniProt Q9XUB2); assay: potency of MEX-5 RNA-binding blockers – biochemical, C. elegans, fluorescence polarization, dose response (AID 1960)
T4 sequence (Q9XUB2 whole entry): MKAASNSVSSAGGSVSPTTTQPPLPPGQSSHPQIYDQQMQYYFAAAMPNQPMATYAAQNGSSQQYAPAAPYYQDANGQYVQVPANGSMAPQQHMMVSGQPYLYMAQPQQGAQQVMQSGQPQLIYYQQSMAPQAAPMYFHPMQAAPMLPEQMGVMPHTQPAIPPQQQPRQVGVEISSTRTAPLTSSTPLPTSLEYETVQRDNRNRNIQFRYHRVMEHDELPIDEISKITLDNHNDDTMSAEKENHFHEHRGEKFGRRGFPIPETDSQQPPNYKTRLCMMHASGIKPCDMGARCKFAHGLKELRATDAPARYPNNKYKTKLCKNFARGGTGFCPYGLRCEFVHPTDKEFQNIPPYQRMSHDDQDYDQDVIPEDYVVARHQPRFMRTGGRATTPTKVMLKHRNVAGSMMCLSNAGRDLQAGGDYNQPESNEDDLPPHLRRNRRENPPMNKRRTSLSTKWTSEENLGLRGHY

Cytochrome P450 3A4 = Cytochrome P450 3A4 (Homo sapiens, UniProt P08684);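 further: CYP3A4 tested as one member of a cytochrome P450 panel screen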
Cytochrome P450 3A4, sequence (P08684 whole entry, the tested form may be a part): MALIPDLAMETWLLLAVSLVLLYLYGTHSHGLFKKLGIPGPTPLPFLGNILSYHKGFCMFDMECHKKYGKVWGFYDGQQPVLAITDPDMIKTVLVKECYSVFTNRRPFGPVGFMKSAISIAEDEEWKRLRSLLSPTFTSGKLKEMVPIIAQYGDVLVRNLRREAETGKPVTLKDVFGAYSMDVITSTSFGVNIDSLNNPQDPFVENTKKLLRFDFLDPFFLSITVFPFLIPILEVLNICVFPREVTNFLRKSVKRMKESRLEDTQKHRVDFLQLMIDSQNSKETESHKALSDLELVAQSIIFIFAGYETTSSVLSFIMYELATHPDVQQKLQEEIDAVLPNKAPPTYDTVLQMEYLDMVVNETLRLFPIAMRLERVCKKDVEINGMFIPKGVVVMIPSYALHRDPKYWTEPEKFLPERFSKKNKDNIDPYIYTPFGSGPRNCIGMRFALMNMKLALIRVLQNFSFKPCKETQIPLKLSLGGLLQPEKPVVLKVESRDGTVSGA

[12] = HIV-1 AD8 envelope cell-cell fusion blockers – cherry-pick, dose response (AID 652062); type: functional, cell-based;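 further: luciferase signal from cell-cell fusion driven by HIV-1 clade B AD8 Env; potency is for inhibitors of fusion seen as a drop in luminescence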
INS1 = assay: INS-1E survival protection against cytokine death – cell-based, luminescence, retest, dose response (AID 449756); type: functional; settings: Rattus norvegicus;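 further: cell death triggered by IL-1 beta plus TNF-alpha plus IFN-gamma mixture; protective hits raise ATP signal compared with cytokine alone wells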

In the case of `COc1ccccc1N1CCN(CCCOc2ccc(F)cc2)CC1`, the IC50 [1] was 122 µM (active).

In the case of `c1ccc(CSc2nnc(-c3c[nH]c4ccccc34)o2)cc1`, the EC50 (H4) was 70.2 µM (active) and the EC50 [2] was 28.7 µM (active).

With `COc1ccc(-c2cc3ccccc3n2CC(O)CN2CCCCC2)cc1` (centres undefined) the IC50 [1] was 110 µM (active).

With `COc1ccc(-c2csc(NC(=S)NC(=O)/C=C/c3ccco3)n2)cc1OC` the AC50 [3] was 0.853 µM (active), the EC50 [4] was 1.62 µM (active) and the EC50 [5] was 3.11 µM (active).

With `COC(=O)/C(=C\c1ccc([N+](=O)[O-])o1)NC(=O)c1ccccc1` the EC50 [6] was 0.53 µM (active) and the EC50 [7] was > 160 µM (inactive).

In the case of `COc1cc(SC)ccc1C(=O)Nc1nccs1`, the IC50 (Protein skinhead-1) was 53.6 µM (inactive).

With `O=C(Nc1cc2c3c(c1)C1CCCC1CN3CC1CCCC21)c1ccccc1` (centres undefined) the EC50 [8] was 0.78 µM (active), the EC50 [7] was > 160 µM (inactive) and the EC50 [9] was > 60 µM (not active).

For `CC(C)C(CCNCc1ccccn1)c1ccc(Cl)cc1` (centres undefined), the IC50 (Protein skinhead-1) was > 100 µM (inactive).

For `O=C(NCc1cccnc1)NC1(C(F)(F)F)Oc2ccccc2O1`, the EC50 [4] was 25.1 µM (active) and the EC50 [5] was 23.3 µM (active).

In the case of `O=C(Nc1csc(Cl)c1)c1ccccc1`, the IC50 (Protein skinhead-1) was > 100 µM (inactive).

In the case of `Cc1ccc(OCc2ccc(C(=O)Nc3nccs3)o2)cc1C`, the AC50 (Cytochrome P450 2D6) was 15.8 µM (inconclusive) and the IC50 (Protein skinhead-1) was > 100 µM (inactive).

For `CCOc1cc(N2CCOCC2)c(OCC)cc1NC(=O)Cc1ccccc1OC`, the EC50 [4] was 23.9 µM (active) and the EC50 [5] was 21.2 µM (active).

In the case of `Cc1ccc2[nH]c(C)c(/C=C3/C(=N)N4N=C(CC(=O)N5CCOCC5)SC4=NC3=O)c2c1`, the EC50 [10] was 38.3 µM (active), the EC50 [11] was > 300 µM (inconclusive) and the IC50 (Protein skinhead-1) was > 100 µM (inactive).

With `O=S(=O)(Nc1nc2ccccc2s1)c1ccc(Br)s1` the EC50 [6] was 1.94 µM (active) and the EC50 [7] was > 150 µM (inactive).

In the case of `CCCSc1nc(O)c2cnn(-c3ccc(C)cc3)c2n1`, the EC50 [4] was 22.2 µM (active) and the EC50 [5] was 20.7 µM (active).

With `Cn1cccc1C(=O)N1CCC2(CCCN(C(=O)Nc3cccc(F)c3)C2)CC1` the AC50 (Cytochrome P450 3A4) was 10 µM (inconclusive).

For `Clc1ccc(-c2cn3cc(Br)ccc3n2)cc1Cl`, the IC50 (Protein skinhead-1) was > 100 µM (inactive).

With `COc1ccc(CCNC(=O)c2c(O)c3ccccc3n(C)c2=O)cc1` the EC50 [6] was > 38 µM (not active) and the EC50 [7] was 72.2 µM (active).

With `CCn1c(CC(=O)Nc2ccc(C)c(Cl)c2)nnc1SCC(=O)Nc1nc(C)cs1` the EC50 [4] was 25.4 µM (active) and the EC50 [5] was 27.2 µM (active).

With `CC(C)c1ccc(C(=O)Nc2ccc(CN3CCOCC3)cc2)cc1` the IC50 (Protein skinhead-1) was 3.18 µM (active).

For `O=C(c1cc(COc2cccc(C(F)(F)F)c2)on1)N1CCC(c2ccncc2)CC1`, the EC50 [6] was > 38 µM (not active), the AC50 [12] was 6.22 µM (active) and the EC50 [7] was > 150 µM (inactive). For the same molecule, the AC50 (INS1) was 5.33 µM (active).
